Experimental findings from patent US20230075822A1, “USE OF CASTALAGIN OR ANALOGS THEREOF FOR ANTI-CANCER EFFICACY AND TO INCREASE THE RESPONSE TO IMMUNE CHECKPOINT INHIBITORS” (THE ROYAL INSTITUTION FOR THE ADVANCEMENT OF …, priority 2020, published 2023) are described below.

What all share (assay type): in vivo, C57BL/6 mice
Assay [1] relates to MCA-205 sarcoma. In words: MCA-205 tumor model in germ-free conditions. Particulars: castalagin 0.85 mg/kg per mouse. On the procedure: FIG. 9A is a graph showing the effects of castalagin administration at the standard concentration (0.85 mg/kg per mouse) in germ-free conditions on tumor size in the murine MCA-205 tumor model.
Murine studies. All animal studies were approved by the Institutional Animal Care Committee (CIPA) and carried out in compliance with the Canadian Council on Animal Care guidelines. Murine experiments were conducted using seven-week-old female C57BL/6 mice, obtained from Charles River, Canada. Germ-free female C57BL/6 mice were purchased from the International Microbiome Centre Germ-Free Facility (University of Calgary, Canada) and maintained at the CR-CHUM Germ-Free Facility.
Subcutaneous model of MCA-205 sarcoma and E0771 breast cancer. Syngeneic C57BL/6 mice were implanted with 0.8×10^6 MCA-205 or 0.5×10^6 E0771 subcutaneously. When tumors reached 20 to 35 mm^2 in size, mice were treated four times (or two times for flow cytometry analysis, see section below) intraperitoneally (i.p.) every three day with anti-PD-1 monoclonal antibody (mAb) (250 μg/mouse; clone RMP1-14, BioXcell) or isotype control (clone 2A3, BioXcell). […] In the control group mice received daily oral gavage with water (100 μL) Tumor area was routinely monitored every three days by means of a caliper. […]

The subject of assay [2] is CD8^+/Foxp3^+CD4^+ T cells. In words: Immunofluorescence staining (CD4, CD8, Foxp3) of MCA-205 tumors. Particulars: castalagin/IsoPD-1 relative to Water/IsoPD-1. An excerpt: FIG. 10B Representative images for the CD4, CD8 and Foxp3 immunofluorescence staining of tumors in both water/ISoPD-1 and castalagin/IsoPD-1 groups. FIG. 10C Box plot for the ratio CD8^+/Foxp3^+CD4^+ in tumor in (n=8/group) obtained with immunofluorescence staining. *p<0.05. Immunofluorescence staining. Murine tumors preserved in optimal cutting temperature (OCT) compound were cut (5 μm-thick sections) and adhered to microscope slides and stored at −80C°. Upon the start of the experiment, slides were air dried and washed with cold acetone. To prevent non-specific binding to biotin, the Endogenous Avidin Biotin Blocking kit (ThermoFisher) was used. Additionally, tissues were incubated with 10% donkey serum in order to reduce background staining. Primary antibodies used are anti-CD4, anti-CD8, anti-Foxp3. Donkey anti-goat and donkey anti-rat conjugated to AF-488 were used as secondary antibodies and slides were incubated with Cy3-Streptavidin to detect biotinylated antibodies. Nuclei were visualized by counterstaining with DAPI (ThermoFisher). Images were generated using the whole slide scanner Olympus BX61VS (20× 0.75NA objective with a resolution of […]). The images were analysed using Visiomorph software (Visiopharm).

For assay [3], the system named is MCA-205 sarcoma. In words: Avatar mice: FMT from responder (R) / non-responder (NR) NSCLC patients, MCA-205 tumors. On the procedure:
FIG. 5A is a schematic of the experimental design of avatar mice experiments. FMT from feces samples from Non-responders (NR) and responders (R) Non-small cell lung cancer (NSCLC) patients were individually performed after 3 days of ATB in SPF C57BI6 mice. Two weeks later, MCA-205 sarcoma cells were inoculated and daily gavage with water or CC were performed in combination with sequential injections of αPD-1 or IsoPD-1 mAb.
FIG. 11A is a graph showing the effect of castalagin (0.85 mg/kg) in the presence or not of anti-PD-1 on tumor growth kinetics in the in the ATB-avatar model after FMT from 1 NR NSCLC patient with daily gavage with castalagin or water in combination with αPD1 mAb or IsoPD-1. Unpaired t-tests were used. Means ±SEM are represented. *p<0.05. […]
Fecal microbiota transplantation (FM7) experiments. FMT was performed as previously published Routy et al. by thawing fecal material from 5 different Non-Small cell lung cancer (NSCLC) patients amenable to immune checkpoint blockers (ICI after appropriate ethics approval at the Centre de recherche du Centre hospitalier de l'Université de Montréal (CRCHUM) in Montreal. Patient records were retrospectively analyzed to identify their response status. Two weeks after FMT, tumor cells were injected subcutaneously and mice were treated with anti-PD-1 mAb or isotype control +/− CC, castalagin or water as described above.

With `O=C1OC[C@H]2OC(=O)c3cc(O)c(O)c(O)c3-c3c(O)c(O)c(O)c4c3C(=O)O[C@H]([C@H]3OC(=O)c5c-4c(O)c(O)c(O)c5[C@@H]3O)[C@@H]2OC(=O)c2cc(O)c(O)c(O)c2-c2c1cc(O)c(O)c2O` [castalagin, Castalagin], the tumor size entry in the assay with MCA-205 sarcoma [1] is given as “abrogated castalagin antitumor effect”. In addition, in assay [2], the “ratio CD8^+/Foxp3^+ CD4^+ in tumor (immunofluorescence)” value was “increase of the ratio CD8^+/Foxp3^+ CD4^+”. Also, the “antitumor activity (tumor growth)” value in the assay with MCA-205 sarcoma [3] (castalagin 0.85 mg/kg + αPD-1, post-FMT from NR NSCLC patients) was “additive effect when combined with αPD-1”; in the assay with MCA-205 sarcoma [3] (castalagin 0.85 mg/kg alone, post-FMT from NR NSCLC patients, ATB and GF conditions) it was “able to restore antitumor activity”.
